Laboratory results as given in patent US5068247A, “2-aminopentanoic acid compounds and their use as immunosuppressants” (priority 1989, dated 1991).
≈ marks a conversion by molar mass, not a printed value. Where two headings read alike, the source gives them in different places. Each block holds one molecule with its values, some of them ahead of it.

Columns and labels:
[1] = tested on: K562; assay: cytotoxicity to cultured tumor cell line K562
Procedure: (§1) Cytotoxicity to various human tumor cell lines was examined as follows:
(§2) Cells of human cell lines, K562, MOLT4, U937 and HL60 were respectively suspended to the concentration of 4×10^5 cells/ml in the RPMI1640 culture medium supplemented with 20% FCS. Fifty μl of each suspension was added to each well of a 96-well microtest plate to which 50 μl of the test solution had been added. After culturing the suspension at 37° C. in an atmosphere of 5% carbon dioxide for 72 hours, the absorbancy at 570 nm was measured in the same way as with the colorimetry using MTT in Experiment Example 1, and the percent suppression was calculated by the following formula, which was used as an index of cytotoxicity.

[2] = cytotoxicity to cultured tumor cell line K562; conditions: human, k562 cells, Suppression
Procedure: as §1, §2

[3] = tested on: mouse allogenic MLR (BALB/c mouse spleen cells stimulated with C57BL/6 mouse spleen cells); assay: mouse allogenic mixed lymphocyte reaction (MLR), 3H-thymidine uptake; format: cell-based
Procedure: The immunosuppressive activity of the compounds was assayed on the basis of mouse allogenic mixed lymphocyte reaction (hereinafter sometimes abbreviated as MLR). Mouse allogenic MRL was carried out using a mixed culture of BALB/c mouse (H-2^d) spleen cells as the responder cells and mitomycin C-treated C57BL/6 ([…]) mouse spleen cells as the stimulator cells in equal amounts.
The responder cells were prepared as follows:
The spleen was resected from 5- to 6-week-old BALB/c mice, and single cell suspension of spleen cells was prepared by using the RPMI1640 culture medium (containing 60 μg/ml of kanamycin sulfate, 2 mM of L-glutamine, 10 mM of N-2-hydroxyethylpiperazine-N'-2-ethanesulphonate (HEPES) and 0.1% sodium hydrogencarbonate) to which heat-inactivated fetal calf serum (hereinafter sometimes abbreviated as FCS) had been added to 5%. After hemolytic treatment, the cell suspension was adjusted to a concentration of 10^7 cells/ml with the RPMI1640 culture medium supplemented with 10^-4 M 2-mercapto-ethanol and 20% FCS, and was used as the responder cell suspension.
The stimulator cells were prepared as follows: The spleen was resected from 5- to 6-week-old male C57BL/6 mice, and a single cell suspension of spleen cells was prepared by using the RPMI1640 culture medium. After hemolytic treatment, the cells were treated with 40 μg/ml of mitomycin C at 37° C. for 60 minutes. After washing three times, the cell suspension was adjusted to a concentration of 10^7 cells/ml with the RPMI1640 culture medium supplemented with 10^-4 M 2-mercapto-ethanol and 20% FCS, and was used as the stimulator cell suspension.
The blastogenesis of lymphocytes was assayed using ^3 H-thymidine uptake as an index. That is, after termination of culture, 18.5 KBq/well of ^3 H-thymidine was added thereto and the suspension was cultured for 4 hours. Cells were harvested by a cell-harvester, and the radioactivity incorporated into the cells was determined by a liquid scintillation counter, which was used as an index of blastogenesis of lymphocytes in the mouse allogenic MLR. The suppression of the mouse allogenic MLR was evaluated by calculating the percent suppression by the following formula.
The test substance dissolved in methanol was diluted with the RPMI1640 culture medium and put to use.

[4] = tested on: allo-specific cytotoxic antibody in serum of EL4-immunized BALB/c mice; assay: suppression of allo-specific cytotoxic antibody production induced by allogenic cell immunization of mouse; format: in vivo
Procedure: Male 5- to 7-week-old BALB/c mice were immunized with leukemia cell EL4 derived from C57BL/6 mice (10^7 cells/mouse, intraperitoneal administration) in the same way as in Experiment Example 9, and the […] Nine to ten days after immunization, a serum was collected from the mice. Fifty μl of the two-fold serial dilution of the serum, 50 μl of a guinea pig complement and EL4 cell suspension labelled with ^51 Cr as the target cell (5×10^4 cells/ml, 100 μl) were together added to a 96-well microtest plate. After incubation at 37° C. for 1 hour, the amount of ^51 Cr released in the supernatant was measured, and the complement-dependent cytotoxicity was calculated by the following formula. [formula]
The value of allo-specific cytotoxic antibody determined as above was expressed by the titer calculated on the basis of the concentration at which the releasing amount of ^51 Cr was 50% of that of ^51 Cr-labelled target cells treated with 0.1 N HCl.

[5] = tested on: IL-3 production in mouse allogenic MLC; assay: suppression of IL-3 production in mouse allogenic MLC; format: cell-based
Procedure: Mouse allogenic MLC was carried out as follows:
After termination of culture, the supernatant was collected and used as the supernatant of mouse allogenic MLC.

[6] = tested on: CTLL-2 cells; assay: suppression of proliferation of IL-2-dependent mouse cell line CTLL-2 induced by IL-2; format: cell-based; conditions: IL-2 50 U/ml; for inhibition at 0.001 µg/mL / inhibition at 0.01 µg/mL / inhibition at 0.1 µg/mL / inhibition at 1 µg/mL: Mus musculus, CTLL-2, 68 h
Procedure: IL-2-dependent mouse cell line CTLL-2 cells were suspended in the RPMI1640 culture medium supplemented with 30% FCS to the concentration of 4×10^5 cells/ml. Fifty μl of the cell suspension, 50 μl of 200 U/ml recombinant human IL-2 (rhIL-2) and 100 μl of the test substance were added to a 96-well flat-bottomed microtest plate. […] The percent suppression (%) was calculated by the following formula. [formula]

[7] = tested on: HL60; assay: cytotoxicity to cultured tumor cell line HL60
Procedure: as §1, §2

[8] = cytotoxicity to cultured tumor cell line HL60; conditions: human, hl60 cells, Suppression
Procedure: as §1, §2

[9] = Mus musculus, Lymphocyte, read-out: Suppression
[10] = 0.01 mg/kg/day ip × 5, Table 10A
[11] = 0.03 mg/kg/day ip × 5, Table 10A
[12] = 0.1 mg/kg/day ip × 5, Table 10A
[13] = 0.3 mg/kg/day ip × 5, Table 10A
[14] = 0.3 mg/kg/day po × 5, Table 10B

SMILES: CCCCCCCCCCCCCCCC[C@@H](O)[C@H](O)[C@@](N)(CO)C(=O)O [Example 2]
Absorbancy ([1]; 0.1 μg/ml): 1.128 ± 0.025
Absorbancy ([1]; 1 μg/ml): 1.103 ± 0.045
Absorbancy ([1]; 10 μg/ml): 1.086 ± 0.045
cytotoxicity at 72 h ([2]; 0.1 μg/ml): 0.7%
cytotoxicity at 72 h ([2]; 1 μg/ml): 2.9%
cytotoxicity at 72 h ([2]; 10 μg/ml): 4.4%
3H-thymidine uptake ([3]; 0.001 μg/ml; Table 1A): 17981 cpm
3H-thymidine uptake ([3]; 0.01 μg/ml; Table 1A): 12011 cpm
3H-thymidine uptake ([3]; 0.1 μg/ml; Table 1A): 2329 cpm
3H-thymidine uptake ([3]; 1 μg/ml; Table 1A): 1869 cpm
IC50 ([3]; Mus musculus, Lymphocyte, read-out: 50%-inhibition concentration (IC50) in mouse allogenic MLR): 0.016 µg/mL (≈ 0.0411 µM)
inhibition at 0.001 µg/mL [3, 9]: 2.7%
inhibition at 0.01 µg/mL [3, 9]: 38.2%
inhibition at 0.1 µg/mL [3, 9]: 95.8%
inhibition at 1 µg/mL [3, 9]: 98.6%
Allogenic cell-specific antibody in serum, suppression [4, 10]: 0%
Allogenic cell-specific antibody in serum, titer [4, 10]: 119 ± 47
Allogenic cell-specific antibody in serum, suppression [4, 11]: 0%
Allogenic cell-specific antibody in serum, titer [4, 11]: 87 ± 55
Allogenic cell-specific antibody in serum, suppression [4, 12]: 0%
Allogenic cell-specific antibody in serum, titer [4, 12]: 89 ± 32
Allogenic cell-specific antibody in serum, suppression [4, 13]: 39.9%
Allogenic cell-specific antibody in serum, titer [4, 13]: 50 ± 48
Allogenic cell-specific antibody in serum, suppression [4, 14]: 39.3%
Allogenic cell-specific antibody in serum, titer [4, 14]: 130 ± 45
Allogenic cell-specific antibody in serum, suppression ([4]; 1 mg/kg/day ip × 5, Table 10A): > 80%
Allogenic cell-specific antibody in serum, titer ([4]; 1 mg/kg/day ip × 5, Table 10A): < 16
Allogenic cell-specific antibody in serum, suppression ([4]; 1 mg/kg/day po × 5, Table 10B): 37.9%
Allogenic cell-specific antibody in serum, titer ([4]; 1 mg/kg/day po × 5, Table 10B): 133 ± 50
Allogenic cell-specific antibody in serum, suppression ([4]; 3 mg/kg/day ip × 5, Table 10A): > 80%
Allogenic cell-specific antibody in serum, titer ([4]; 3 mg/kg/day ip × 5, Table 10A): < 16
Allogenic cell-specific antibody in serum, suppression ([4]; 3 mg/kg/day po × 5, Table 10B): 58.9%
Allogenic cell-specific antibody in serum, titer ([4]; 3 mg/kg/day po × 5, Table 10B): 88 ± 47
Allogenic cell-specific antibody in serum, suppression ([4]; 10 mg/kg/day po × 5, Table 10B): 68.7%
Allogenic cell-specific antibody in serum, titer ([4]; 10 mg/kg/day po × 5, Table 10B): 67 ± 16
allo-specific cytotoxic antibody production in serum (in words) ([4]; intraperitoneal or oral, Tables 10A to 10D): strongly suppresses allo-specific cytotoxic antibody production in serum
IL-3 activity ([5]; 0.0001 μg/ml): 42.8 U/ml
IL-3 activity ([5]; 0.001 μg/ml): 45.3 U/ml
IL-3 activity ([5]; 0.01 μg/ml): 42.2 U/ml
IL-3 activity ([5]; 0.1 μg/ml): 23.6 U/ml
IL-3 activity ([5]; 1 μg/ml): 11.0 U/ml
inhibition at 0.0001 µg/mL ([5]; Mus musculus, 48 h, 0.0001 μg/ml): 16.3%
inhibition at 0.001 µg/mL ([5]; Mus musculus, 48 h, 0.001 μg/ml): 9.9%
inhibition at 0.01 µg/mL ([5]; Mus musculus, 48 h, 0.01 μg/ml): 17.9%
inhibition at 0.1 µg/mL ([5]; Mus musculus, 48 h, 0.1 μg/ml): 65.3%
inhibition at 1 µg/mL ([5]; Mus musculus, 48 h, 1 μg/ml): 97.4%
optical density (OD570) ([6]; 0.001 μg/ml, Table 6A): 0.555
optical density (OD570) ([6]; 0.001 μg/ml, Table 6B): 0.898
optical density (OD570) ([6]; 0.01 μg/ml, Table 6A): 0.543
optical density (OD570) ([6]; 0.01 μg/ml, Table 6B): 0.880
optical density (OD570) ([6]; 0.1 μg/ml, Table 6A): 0.558
optical density (OD570) ([6]; 0.1 μg/ml, Table 6B): 0.774
optical density (OD570) ([6]; 1 μg/ml, Table 6A): 0.161
optical density (OD570) ([6]; 1 μg/ml, Table 6B): 0.508
inhibition at 0.001 µg/mL ([6]; read-out: Suppression, 0.001 μg/ml, Table 6A): 5.3%
inhibition at 0.001 µg/mL ([6]; read-out: Suppression, 0.001 μg/ml, Table 6B): 6.7%
inhibition at 0.01 µg/mL ([6]; read-out: Suppression, 0.01 μg/ml, Table 6A): 7.4%
inhibition at 0.01 µg/mL ([6]; read-out: Suppression, 0.01 μg/ml, Table 6B): 8.7%
inhibition at 0.1 µg/mL ([6]; read-out: Suppression, 0.1 μg/ml, Table 6A): 4.8%
inhibition at 0.1 µg/mL ([6]; read-out: Suppression, 0.1 μg/ml, Table 6B): 20%
inhibition at 1 µg/mL ([6]; read-out: Suppression, 1 μg/ml, Table 6A): 72.6%
inhibition at 1 µg/mL ([6]; read-out: Suppression, 1 μg/ml, Table 6B): 48.4%
Absorbancy ([7]; 0.1 μg/ml): 1.385 ± 0.066
Absorbancy ([7]; 1 μg/ml): 1.466 ± 0.126
Absorbancy ([7]; 10 μg/ml): 1.441 ± 0.018
cytotoxicity at 72 h ([8]; 0.1 μg/ml): 7%
cytotoxicity at 72 h ([8]; 1 μg/ml): 1.6%
cytotoxicity at 72 h ([8]; 10 μg/ml): 3.3%

IC50 ([3]; Mus musculus, Lymphocyte; read-out: 50%-inhibition concentration (IC50) in mouse allogenic MLR): 0.25 µg/mL (≈ 0.523 µM)
SMILES: CCCCCCC1(CCCCCC/C=C/C[C@@H](O)[C@H](O)[C@@](N)(CO)C(=O)O)SCCS1 [Example 3]
3H-thymidine uptake ([3]; 0.0001 μg/ml; Table 1A): 17247 cpm
3H-thymidine uptake ([3]; 0.001 μg/ml; Table 1A): 16263 cpm
3H-thymidine uptake ([3]; 0.01 μg/ml; Table 1A): 13978 cpm
3H-thymidine uptake ([3]; 0.1 μg/ml; Table 1A): 14747 cpm
3H-thymidine uptake ([3]; 1 μg/ml; Table 1A): 631 cpm
inhibition at 0.0001 µg/mL ([3]; Mus musculus, Lymphocyte, 0.0001 μg/ml; Table 1A; read-out: Suppression): 7.1%
inhibition at 0.001 µg/mL ([3]; Mus musculus, Lymphocyte, 0.001 μg/ml; Table 1A; read-out: Suppression): 12.9%
inhibition at 0.01 µg/mL ([3]; Mus musculus, Lymphocyte, 0.01 μg/ml; Table 1A; read-out: Suppression): 26.5%
inhibition at 0.1 µg/mL ([3]; Mus musculus, Lymphocyte, 0.1 μg/ml; Table 1A; read-out: Suppression): 21.9%
inhibition at 1 µg/mL ([3]; Mus musculus, Lymphocyte, 1 μg/ml; Table 1A; read-out: Suppression): 96.2%
optical density (OD570) ([6]; 0.001 μg/ml, Table 6A): 0.551
optical density (OD570) ([6]; 0.01 μg/ml, Table 6A): 0.449
optical density (OD570) ([6]; 0.1 μg/ml, Table 6A): 0.471
optical density (OD570) ([6]; 1 μg/ml, Table 6A): 0.152
inhibition at 0.001 µg/mL ([6]; 0.001 μg/ml, Table 6A, read-out: Suppression): 6%
inhibition at 0.01 µg/mL ([6]; 0.01 μg/ml, Table 6A, read-out: Suppression): 23.4%
inhibition at 0.1 µg/mL ([6]; 0.1 μg/ml, Table 6A, read-out: Suppression): 19.7%
inhibition at 1 µg/mL ([6]; 1 μg/ml, Table 6A, read-out: Suppression): 74.2%
